Measured values reported in US6329189A, “Enzyme producing tartaric acid ether compound and process for producing tartaric acid ether compounds using this enzyme” (Kikkoman Corporation, priority 1998, dated 2001).

Columns and labels:
[1] = system: enzyme producing tartaric acid ether compound; assay: Substrate specificity of the present enzyme in the presence of (±)-trans-epoxysuccinic acid; type: biochemical, Aspergillus oryzae; settings: for Action of the enzyme to the phenolic hydroxyl groups of the substrate (in words): in the presence of (±)-trans-epoxysuccinic acid; for Relative activity (%): substrate in the presence of (±)-trans-epoxysuccinic acid, decrement of genistein as substrate expressed as 100
Protocol: The activities of the present enzyme to the various substrate compounds having a phenolic hydroxyl group(s) shown in Table 1 in the presence of (±)-trans-epoxysuccinic acid were measured and shown as relative activities (%) with reference to the activity to genistein which was expressed as 100. The measurement of activity was conducted under the same conditions as used for the determination of titer described later.
Enzyme titer was determined by the following method. The amount of the enzyme that produces 1 μmol of 2-hydroxy-3-[[5-hydroxy-3-(4-hydroxyphenyl)-4-oxo-4H-1-benzopyran-7-yl]oxy]-butanedioic acid in one minute in the reaction of the following formula (6) is expressed as 1 U. [drawing 1]
Substrate solution I: 60 mM (±)-trans-epoxysuccinic acid (Tokyo Kasei Kogyo Co., Ltd.) was dissolved in 100 ml of a 50 mM sodium acetate-acetic acid buffer (pH 6.0), and the solution was adjusted to pH 6.0 with sodium hydroxide.
Substrate solution II: Prepared by dissolving 0.3 mmol of genistein (Funakoshi Co., Ltd.) in 100 ml of dimethyl sulfoxide.
50 mmol of sodium acetate and 40 mmol of manganese sulfate were dissolved in distilled water, and the solution was adjusted to pH 6.0 with acetic acid and made one litre.
(1) 0.175 ml of the buffer, 0.1 ml of the substrate solution I and 0.01 ml of an enzyme solution were pipetted into a microtube, and the mixed solution was preincubated at 37° C. for 5 minutes.
(2) The above solution was mixed with 0.025 ml of the substrate solution II and reacted at 37° C. for 15 minutes, after which 0.01 ml of concentrated hydrochloric acid was added to stop the reaction. Used as control was a solution prepared in the same way as described above except that 0.01 ml of the buffer was added in place of 0.01 ml of the enzyme solution.
2-hydroxy-3-[[5-hydroxy-3-(4-hydroxyphenyl)-4-oxo-4H-1-benzopyran-7-yl]oxy]-butanedioic acid produced from the reaction of the formula (6) was determined by HPLC under the following conditions: […]
Column: Wakosil-II5C18HG (4.6 mm×30 mm+4.6 mm×250 mm, mfd. by Wako Pure Chemical Industries, Ltd.).
Eluent: distilled water containing 0.05% of trifluoroacetic acid and 28.8% of acetonitrile.
Detecting wavelengh: 260 nm.

[2] = system: enzyme producing tartaric acid ether compound; assay: Influence of metallic ions on the action of the present enzyme; type: biochemical, Aspergillus oryzae; settings: for Relative activity (%): 20 mM metallic ion, activity with no addition = 100%; for Influence on the activity of the present enzyme (in words): presence of the ion or EDTA
Protocol: "Relative activity (%)" in Table 2 is the value relative to the activity (expressed as 100) observed when no metallic ion was added.
The activity observed with no addition of metallic ions was expressed as 100%.

Structure (SMILES) | Action of the enzyme to the phenolic hydroxyl groups of the substrate (in words) [1] | Relative activity (%) [1] [%] | Relative activity (%) [2] [%] | Influence on the activity of the present enzyme (in words) [2] | Relative activity (%) ([2]; listed as Fe^3+)
COc1ccc(-c2coc3cc(O)cc(O)c3c2=O)cc1 [biochanin A] | acts in a favorable way | 86 | – | – | –
[Mn+2] [Mn^2+] | – | – | 268 | enhanced | –
O=c1c(-c2ccc(O)cc2)coc2cc(O)c(O)cc12 [4',6,7-trihydroxyisoflavone] | acts in a favorable way | 182 | – | – | –
COc1cc(C(=O)O)ccc1O [vanillic acid] | acts faintly | 4 | – | – | –
O=C(/C=C/c1ccc(O)c(O)c1)c1c(O)cc(O)cc1O [2',4',6',3,4-pentahydroxychalcone] | acts in a favorable way | 115 | – | – | –
O=C1COc2cc(O)ccc21 [6-hydroxy-2H-benzofuran-3-one] | acts in a favorable way | 135 | – | – | –
O=C1c2c(O)cc(O)cc2O[C@H](c2ccc(O)c(O)c2)[C@H]1O [(+)-taxifolin] | acts in a favorable way | 106 | – | – | –
[Co+2] [Co^2+] | – | – | 236 | enhanced | –
[Mg+2] [Mg^2+] | – | – | 220 | enhanced | –
O=c1c(O)c(-c2ccc(O)cc2)oc2cc(O)cc(O)c12 [kaempferol] | acts in a favorable way | 278 | – | – | –
[Fe+2] [Fe^2+] | – | – | 125 | enhanced | 33
O=c1c(-c2ccc(O)cc2)coc2cc(O)ccc12 [daidzein] | acts in a favorable way | 52 | – | – | –
Oc1cc(O)c2c(c1)OC(c1ccc(O)c(O)c1)C(O)C2 (centres unmarked) [catechin] | – | 16 | – | – | –
O=c1cc(CO)occ1O [kojic acid] | acts faintly | 4 | – | – | –
O=C1/C(=C/c2ccc(O)c(O)c2)Oc2cc(O)ccc21 [sulfuretin] | acts in a favorable way | 316 | – | – | –
O=c1oc2cc(O)ccc2c2oc3cc(O)ccc3c12 [courmestrol] | acts in a favorable way | 58 | – | – | –
O=c1cc(-c2ccccc2)oc2cc(O)c(O)c(O)c12 [baicalein] | acts in a favorable way | 321 | – | – | –
O=c1cc(-c2ccc(O)cc2)oc2cc(O)cc(O)c12 [apigenin] | acts in a favorable way | 92 | – | – | –
O=C1C[C@@H](c2ccc(O)cc2)Oc2cc(O)cc(O)c21 [naringenin] | acts in a favorable way | 194 | – | – | –
Cc1cc(=O)oc2cc(O)cc(O)c12 [5,7-dihydroxy-4-methylcoumarin] | acts in a favorable way | 107 | – | – | –
O=c1c(O)c(-c2ccc(O)c(O)c2)oc2cc(O)cc(O)c12 [quercetin] | – | 31 | – | – | –
